Legend:
[1] = Subject's earlier response to sedative/analgesic drugs (medical history); details: child, around adenoid removal
[2] = tested on: Childhood-Onset Bipolar Disorder With FOH; assay: Ketamine treatment of childhood-onset bipolar disorder with FOH (single-subject case report); format: in vivo, human; details: 2 intranasal puffs of ketamine
Description: Subject is a child referred by their parents for psychiatric care to address their intense and often violent rages.
Subject has had episodic rages that have escalated in frequency and intensity since their adoption at 18 months. They have always experienced extreme separation anxiety but their aggression has shifted from themself toward their parents since starting school. The abuse towards their parents has included hitting, kicking, biting, and propelling objects. Parents came for consultation for fear that Subject will become more dangerous as they age.
Subject is currently on seroquel—225 mg (50 mg time release mornings, 25 mg afternoon, 150 mg time release evenings), lithium 600 mg (300 mg mornings and evenings), and 2 intranasal puffs of ketamine.

[3] = cited from earlier work
[4] = cited from earlier work; remark: listed apart in the source
[5] = tested on: PCP site of the NMDA receptor; details: (S)- versus (R)-ketamine; cited from earlier work

With Cc1ncc2n1-c1ccc(Cl)cc1C(c1ccccc1F)=NC2 [Versid] the “response of subject to drug (medical history)” value [1] was “extreme hyperactivity instead of relaxation”.
In the case of CNC1(c2ccccc2Cl)CCCCC1=O (stereo not drawn) [ketamine, [(2-2-chlorophenyl)-2-(methylamino)-cyclohexanone]], the coordination [2] is reported as “improved coordination”, the coping with transitions [2] is reported as “able to cope with transitions without the aid of transitional rituals” and the “dependence on transitional objects” value [2] is reported as “decreased to the rare occasion”. The hallucinations [2] was “complete remission”, the hoarding behavior [2] was “ceased” and the motion sickness [2] was “no more motion sickness”. For the same compound, the night sweats [2] was “no longer complains of night sweats”, the physical well-being [2] was “much improvement” and the sleep [2] was “improved greatly”. For the same compound, the speech [2] was “improved with much greater regularity in coherence, tempo, volume, and clarity”, the thirst on awakening [2] was “no longer awakens extremely thirsty” and the delusions ([2]; except the last few days of the ketamine cycle) was “subsided”. For the same compound, the aggression ([2]; returns on occasion the few days prior to next administration) was “nearly disappeared”, the dreams ([2]; subject's report) was ““good dreams” have replaced their “bad dreams.”” and the “overall response after the use of ketamine” value ([2]; child, with seroquel 225 mg and lithium 600 mg) was “quite notable changes in body temperature, speech, levels of fear, sleep, attention, aggression, and psychosis/delusions”. The “dose at which mild adverse effects (dysphoria and/or hallucinations, "ketamine dreams") can occur” value ([3]; dose of ketamine) was “greater than 50 mg” and the “dose usually required for mild adverse effects (dysphoria and/or hallucinations)” value ([3]; total dose intranasally) was “greater than 100 mg”.
For CN[C@@]1(c2ccccc2Cl)CCCCC1=O [(R)-ketamine], the hallucinogenic effect ([4]; in vivo) is listed as “hallucinogenic”.
In the case of CN[C@]1(c2ccccc2Cl)CCCCC1=O [(S)-ketamine], the “affinity for the PCP site of the NMDA receptor relative to (R)-ketamine” value [5] is listed as “about four” and the induction of drowsiness ([4]; comparison of enantiomers) is listed as “more strongly than the (R) enantiomer”.
